# Reference: patent US4228156A, “Synthetic peptides having pituitary growth hormone releasing activity” (Beckman Instruments, Inc., priority 1979, dated 1980)
# Non-standard residues stand in square brackets, D forms with d. Residues, ends and D or L forms follow the SMILES beside them.
# System: pituitaries removed from 20 day old female rats
# Test: In vitro growth hormone release study (incubated rat pituitaries, GH radioimmunoassay of the medium)
# Type: cell-based, rats (CD-1 strain)
# Details: two pituitaries in 1 ml lactated Ringer's, 36° C., ± SEM
# Procedure: Female rats of the CD-1 strain were housed in a constant temperature room at 24° C. with 14 hours light and 10 hours darkness. The rats were fed Purina brand rat chow ab libitum. All studies were started between 0800 and 1000 hours. Pituitaries were removed from 20 day old female rats. Two pituitaries were incubated at 36° C. in 1 ml of lactated Ringer's solution in 10 ml polytetrafluoroethylene beakers in a Dubnoff Shaker (90 cycles/min.). The pituitaries were incubated a total of 4 hours (P1, P2, I3, and I4). After two successive one hour preincubation periods (P1, P2), the peptide was added to the incubation medium hourly for 2 hours (I3, I4). This in vitro study was performed in triplicate and a standard radioimmunoassay of growth hormone present in the incubation medium was performed in duplicate. The hormonal activity was calculated as the difference (Δ) of growth hormone (GH) levels between I3, I4 and P2, i.e., (I3 -P2) and (I4 -P2). P values were calculated by Students' t test using six growth hormone values for each value recorded. The growth hormone radioimmunoassay reagents were distributed by the National Institute of Arthritis and Metabolite Disease Division (NIAMDD) program. The growth hormone values were calculated in terms of nanograms (ng) of a rat standard with a growth hormone potency of 0.61 units/mg.
compound,measurement,setting,value
"NC(=O)[C@H](Cc1ccccc1)NC(=O)[C@@H](Cc1c[nH]c2ccccc12)NC(=O)[C@H](N)Cc1c[nH]c2ccccc12 [H2 N--D-Trp--D-Trp--Phe--CONH2, H2 N-D-Trp-D-Trp-Phe-CONH2] (H-[dW]-[dW]-Phe-NH2)","In vitro growth hormone release (ΔGH, I3-P2 and I4-P2)","0.3μg peptide, P Value ~0.02",592 ± 237 ng.increment.GH/ml incubation
same,"In vitro growth hormone release (ΔGH, I3-P2 and I4-P2)","1μg peptide, P Value <0.001",943 ± 137 ng.increment.GH/ml incubation
same,"In vitro growth hormone release (ΔGH, I3-P2 and I4-P2)","10μg peptide, P Value <0.001",1263 ± 293 ng.increment.GH/ml incubation
same,"In vitro growth hormone release (ΔGH, I3-P2 and I4-P2)","100μg peptide, P Value <0.01",635 ± 165 ng.increment.GH/ml incubation
